Reference: patent publication US20110190399A1 (priority 2008, published 2011)

Legend:
hemozoin synthesis = test: In vivo inhibition of hemozoin synthesis in P. yoelii infected mice; details: oral, 3 days, curcumin fed bound to chitosan nanoparticles
Description: Infected mice were divided into 4 groups (each having 4 mice), namely: • 1. Control group which was further sub-divided into the infected control group, olive oil control group and chitosan control group • 2. Infected and fed with Chloroquinine (1.7 mg in 100 μl of normal saline/mouse/day orally) • 3. […] Infected and fed with Chitosan nanoparticles (200 micrograms of chitosan/day) orally
Red blood cells were purified on the third day of treatment. […] The cells were centrifuged at 10,000 g for 10 min, supernatant was discarded and the pellet washed in 1 ml of 0.1 M alkaline bicarbonate buffer (pH 9.2).

[1] = Effect on liver inflammation in human volunteers; format: in vivo; details: 500 mg/day/person orally, 15 days
Source text: Results of said tests are depicted in FIGS. 15.1-15.5.

[2] = Effect on globulin level, eosinophils, neutrophils and platelet count of human volunteers; format: in vivo; details: 500 mg/day/person orally, 15 days
[3] = Effect on hemoglobin and RBC level of human volunteers; format: in vivo; details: 500 mg/day/person orally, 15 days
[4] = Effect on kidney function in human volunteers; format: in vivo; details: 500 mg/day/person orally
[5] = Effect on fasting blood sugar levels in human volunteers; format: in vivo; details: 500 mg/day/person orally, 15 days
Source text: The results of the analysis are depicted in FIG. 11.

CCN(CC)CCCC(C)Nc1ccnc2cc(Cl)ccc12 (stereo not shown) [chloroquine]
hemozoin formation in vivo (hemozoin synthesis): inhibited hemozoin formation in vivo

COc1cc(/C=C/C(=O)CC(=O)/C=C/c2ccc(O)c(OC)c2)ccc1O [curcumin, Curcumin]
ALP and Bilirubin levels [1]: in the normal range except in one or two cases | adverse effect on liver function [1]: do not have any adverse effect on liver function | levels of eosinophiles, neutrophils and platelets [2]: no significant effect | blood hemoglobin and RBCs (anemic condition, RBC counts) [3]: no adverse effect | change in potassium level ([4]; human volunteers (7), 15 days): increase | change in serum creatinine and urea levels ([4]; human volunteers, 15 days): slight decrease | serum creatinine, urea and potassium levels ([4]; human volunteers, before and after 15 days): within the normal range | hemozoin formation in vivo (hemozoin synthesis): inhibited hemozoin formation in vivo | fasting glucose level [5]: not altered
